# Counter-ions that a name gives are not always drawn.
# Molecular target: T1, KRAS-G12D and SOS1 (Homo sapiens, UniProt P01116, G12D)
# T1 construct: purchased
# Test: Inhibition of KRAS-G12D/SOS1 binding (Cisbio binding kit, 665/615 ratio), Effect Embodiment A
# Details: read-out: GTP-KRAS-G12D:SOS1 IC50
# Procedure: Similarly, the first dilution point of the compound to be tested was its storage solution, and the solution was 3-fold diluted, with 11+0 points of dilution. Echo was used to transfer 0.2 μL gradient diluted solution of the compounds into a 384-well plate, with 2 duplicated wells for each compound, and the final concentration of DMSO was 1%. The solution was centrifuged for 1 min at 1000 rpm/min.
# IC50 of the compounds was fitted by Graphpad Prism 8 nonlinear regression equation: […]
# The IC50 (half inhibitory concentration) of the compound was obtained by using the following nonlinear fitting formula: […]
# T1 sequence (P01116 1-188 isoform P01116-2 G12D): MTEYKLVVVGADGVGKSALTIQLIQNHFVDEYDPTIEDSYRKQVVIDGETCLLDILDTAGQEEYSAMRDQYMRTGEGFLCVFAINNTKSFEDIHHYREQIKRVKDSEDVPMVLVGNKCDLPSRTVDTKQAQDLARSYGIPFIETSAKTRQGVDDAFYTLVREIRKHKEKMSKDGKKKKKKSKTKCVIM
row,IC50,SMILES
1,6.44 µM,"CN(C)C1CN(c2nc(N3C[C@H]4CC[C@@H]3CN4)c3cc(Cl)c(-c4cc(O)cc5ccccc45)c(F)c3n2)C1 (single isomer, unassigned) [Compound 1a, (R or S)-4-(4-((1R,4R)-2,5-diazabicyclo[2.2.2]octan-2-yl)-6-chloro-2-(3-(dimethylamino)azetidin-1-yl)-8-fluoroquinazolin-7-yl)naphthalen-2-ol]"
2,0.762 µM,"Cn1ccnc1COc1nc(N2C[C@H]3CC[C@@H](C2)N3)c2cnc(-c3cc(O)cc4ccccc34)c(F)c2n1 [Compound 132, 4-(4-((1R,5S)-3,8-diazabicyclo[3.2.1]octan-3-yl)-8-fluoro-2-((1-methyl-1H-imidazol-2-yl)methoxy)pyridinyl[4,3-d]pyrimidin-7-yl)naphthalen-2-ol trifluoroacetate]"
3,13.8 µM,"CCN(C)CCCOc1nc(N2CC3CCC(C2)N3)c2cc(Cl)c(-c3cc(O)cc4ccccc34)c(F)c2n1 (single isomer, unassigned) [Compound 49b, 4-((R or S)-4-((1R,5S)-3,8-diazabicyclo[3.2.1]octan-3-yl)-6-chloro-2-(3-(ethyl(methyl)amino)propoxy)-8-fluoroquinazolin-7-yl)naphthalen-2-ol dicarboxylate]"
4,5.12 µM,"C#Cc1c(F)ccc2cc(O)cc(-c3c(Cl)cc4c(N5CC6CCC(C5)N6)nc(OCCCN5C6CCC5COC6)nc4c3F)c12 (single isomer, unassigned) [Compound 255a, (4S or 4R)-4-(2-(3-(3-oxa-8-azabicyclo[3.2.1]octan-8-yl)propoxy)-4-(1R,5S)-3,8-diazabicyclo[3.2.1]octan-3-yl)-6-chloro-8-fluoroquinazolin-7-yl)-5-ethynyl-6-fluoronaphthalen-2-ol diformate]"
5,18 µM,"Oc1cc(-c2c(Cl)cc3c(N4CC5CCC(C4)N5)nc(OCCCN4CCCCC4)nc3c2F)c2ccccc2c1 (single isomer, unassigned) [Compound 66b, 4-((R or S)-4-((1R,5S)-3,8-diazabicyclo[3.2.1]octan-3-yl)-6-chloro-8-fluoro-2-(3-(piperidin-1-yl)propoxy)quinazolin-7-yl)naphthalen-2-ol]"
6,7.12 µM,"CN(C)C1CN(c2nc(N3CCC4(CCCN4)CC3)c3cc(Cl)c(-c4cc(O)cc5ccccc45)c(F)c3n2)C1 (single isomer, unassigned) [Compound 12a, (R or S)-4-(6-chloro-2-(3-(dimethylamino)azetidin-1-yl)-8-fluoro-4-(1,8-diazaspiro[4.5]decan-8-yl)quinazolin-7-yl)naphthalen-2-ol]"
7,4.8 µM,"CN(C)CCCOc1nc(N2CC3CCC(C2)N3)c2cc(Cl)c(-c3cc(O)cc4ccccc34)c(F)c2n1 (single isomer, unassigned) [Compound 40b, (R or S)-4-(4-((1R,5,S)-3,8-diazabicyclo[3.2.1]octan-3-yl)-6-chloro-2-(3-(dimethylamino)propoxy)-8-fluoroquinazolin-7-yl)naphthalen-2-ol]"
8,63.3 µM,"CN(C)C1CN(c2nc(N3C[C@H]4CC[C@@H](C3)N4)c3cc(Cl)c(-c4cc(O)cc5ccccc45)c(F)c3n2)C1 (single isomer, unassigned) [Compound 5b, (S or R)-4-(4-((1R,5S)-3,8 diazabicyclo [3.2.1]octan-3-yl)-6-chloro-2-(3-(dimethylamino)azetidin-1-yl)-8-fluoro-quinazolin-7-yl)naphthalen-2-ol]"
9,15.7 µM,"CN1CCCC[C@H]1COc1nc(N2CC3CCC(C2)N3)c2cc(Cl)c(-c3cc(O)cc4ccccc34)c(F)c2n1 (single isomer, unassigned) [Compound 56b, 4-((R or S)-4-((1R,5S)-3,8-diazabicyclo[3.2.1]octan-3-yl)-6-chloro-8-fluoro-2-((S)-1-methylpiperidin-2-yl)methoxy)quinazolin-7-yl)naphthalen-2-ol dihydrochloride]"
10,> 200 µM,"CN(C)C1CN(c2nc(N=S3(=O)CCC(N)CC3)c3cc(Cl)c(-c4cc(O)cc5ccccc45)c(F)c3n2)C1 (single isomer, unassigned) [Compound 72a, (4R or S)-4-amino-1-(((R or S)-6-chloro-2-(3-(dimethylamino)azetidin-1-yl)-8-fluoro-7-(3-hydroxynaphthalen-1-yl)quinazolin-4-yl)imino)hexahydro-1-thiopyran 1-oxide]"
11,52.7 µM,"CN(CCN)c1nc(N2CC(N(C)C)C2)nc2c(F)c(-c3cc(O)cc4ccccc34)c(Cl)cc12 (single isomer, unassigned) [Compound 15b, (S or R)-4-(4((2-aminoethyl) (methyl)-amino)-6-chloro-2-(3-(dimethylamino)azetidin-1-yl)-8-fluoroquinazolin-7-yl)naphthalen-2-ol]"
12,1.53 µM,"CN(C)C1CN(c2nc(N3CCC4(CC3)CNC4)c3cc(Cl)c(-c4cc(O)cc5ccccc45)c(F)c3n2)C1 (single isomer, unassigned) [Compound 11a, (R or S)-4-(6-chloro-2-(3-(dimethylamino)azetidin-1-yl)-8-fluoro-4-(2,7-diazaspiro[3.5]nonan-7-yl)quinazolin-7-yl)naphthalen-2-ol]"
13,50.8 µM,"CCCN(C)CCCOc1nc(N2CC3CCC(C2)N3)c2cc(Cl)c(-c3cc(O)cc4ccccc34)c(F)c2n1 (single isomer, unassigned) [Compound 51b, 4-((R or S)-4-((1R,5S)-3,8-diazabicyclo[3.2.1]octan-3-yl)-6-chloro-8-fluoro-2-(3-(methyl(propyl)amino)propoxy)quinazolin-7-yl)naphthalen-2-ol]"
14,3.57 µM,"CN(C)C1CN(c2nc(N3CC4CCC(C3)N4C)c3cc(Cl)c(-c4cc(O)cc5ccccc45)c(F)c3n2)C1 (single isomer, unassigned) [Compound 86, 4-((S or R)-6-chloro-2-(3-(dimethylamino)azetidin-1-yl)-8-fluoro-4-((1R,5S)-8-methyl)-3,8-diazabicyclo[3.2.1]octan-3-yl)quinazolin-7-yl)naphthalen-2-ol]"
15,15.1 µM,"Oc1cc(-c2c(Cl)cc3c(N4CC5CCC(C4)N5)nc(OCC45CCCN4CCC5)nc3c2F)c2ccccc2c1 (single isomer, unassigned) [Compound 58b, 4-((R or S)-4-((1R,5S)-3,8-diazabicyclo[3.2.1]octan-3-yl)-6-chloro-8-fluoro-2-((tetrahydro-1H-pyrrolin-7a(5H)-yl)methoxy)quinazolin-7-yl)naphthalen-2-ol]"
16,8.77 µM,"CN1CCC[C@H]1COc1nc(N2CC3CCC(C2)N3)c2cc(Cl)c(-c3c(F)c(O)cc4ccccc34)c(F)c2n1 (single isomer, unassigned) [Compound 195a, (R or S)-4-(4-((1R,5S)-3,8-diazabicyclo[3.2.1]octan-3-yl)-6-chloro-8-fluoro-2-((S)-1-methylpyrrolidin-2-yl)methoxy)quinazolin-7-yl)-3-fluoronaphthalen-2-ol diformate]"
17,1.58 µM,"CCc1c(F)ccc2cc(O)cc(-c3c(F)cc4c(N5CC6CCC(C5)N6)nc(OCCCN5C6CCC5COC6)nc4c3F)c12 (single isomer, unassigned) [Compound 215b, 4-((7R or 7S)-2-(3-(3-oxa-8-azabicyclo[3.2.1]octan-8-yl)propoxy)-4-((1R,5S)-3,8-diazabicyclo[3.2.1]octan-3-yl)-6,8-difluoroquinazolin-7-yl)-5-ethyl-6-fluoronaphthalen-2-ol diformate]"
18,1.26 µM,"CN(C)C1CN(c2nc(N3CC4CCC(C3)N4)c3cc(Cl)c(-c4cc(O)cc5cccnc45)c(F)c3n2)C1 (single isomer, unassigned) [Compound 45a, 8-((S or R)-4-((1R,5S)-3,8-diazabicyclo[3.2.1]octan-3-yl)-6-chloro-2-(3-(dimethylamino)azetidin-1-yl)-8-fluoroquinazolin-7-yl)quinolin-6-o1]"
19,0.387 µM,"CCCN(C)CC1(COc2nc(N3C[C@H]4CC[C@@H](C3)N4)c3cc(Cl)c(-c4cc(O)cc5ccccc45)c(F)c3n2)CC1 (single isomer, unassigned) [Compound 185, (R or S)-4-(4-((1R,5S)-3,8-diazabicyclo[3.2.1]octan-3-yl)-6-chloro-8-fluoro-2-((1-((methyl(propyl)amino)methyl)cyclopropyl)methoxy)quinazolin-7-yl)naphthalen-2-ol diformate]"
20,1.85 µM,"C#Cc1cccc2cc(O)cc(-c3c(F)cc4c(N5CC6CCC(C5)N6)nc(OCCCN5C6CCC5COC6)nc4c3F)c12 (single isomer, unassigned) [Compound 273b, 4-((7R or 7S)-2-(3-(3-oxa-8-azabicyclo[3.2.1]octan-8-yl)propoxy)-4-((1R,5S)-3,8-diazabicyclo[3.2.1]octan-3-yl)-6,8-difluoroquinazolin-7-yl)-5-ethynylnaphthalen-2-ol diformate]"
21,0.605 µM,"CN(C)CCCSc1nc(N2C[C@H]3CC[C@@H](C2)N3)c2cc(Cl)c(-c3cc(O)cc4ccccc34)c(F)c2n1 (single isomer, unassigned) [Compound 147, (S or R) 4-(4-((1R,5S)-3,8-diazabicyclo[3.2.1]octan-3-yl)-6-chloro-2-((3-(dimethylamino)propyl)thio)-8-fluoroquinazolin-7-yl)naphthalen-2-ol dihydrochloride]"
22,2.24 µM,"CN(C)C1CN(c2nc(N3C[C@H]4CNC[C@H]4C3)c3cc(Cl)c(-c4cc(O)cc5ccccc45)c(F)c3n2)C1 (single isomer, unassigned) [Compound 13a, (R or S)-4-(6-chloro-2-(3-(dimethylamino)azetidin-1-yl)-8-fluoro-4-((3aR,6aS)-hexahydro-pyrrolo[3,4-c]pyrrol-2 (1H)-yl)quinazolin-7-yl)naphthalen-2-ol]"
23,71 µM,"CN(C)C1CN(c2nc(N3CC4(CCNC4)C3)c3cc(Cl)c(-c4cc(O)cc5ccccc45)c(F)c3n2)C1 (single isomer, unassigned) [Compound 8b, (S or R)-4-(6-chloro-2-(3-(dimethylamino)azetidin-1-yl)-8-fluoro-4-(2,6-diazaspiro[3.4]octan-2-yl)quinazolin-7-yl)naphthalen-2-ol]"
